According to patent US20230085307A1, “PYRIDAZINONE COMPOUND AND HERBICIDE” (NISSAN CHEMICAL CORPORATION, priority 2019, published 2023):

How the values were obtained:
chickweed = experiment: Test Example 5: herbicidal effect by foliage application, plastic box (Table 20, symbol P); format: in vivo, common chickweed (Stellaria media); details: foliage application; for P: chickweed, herbicidal effect (criteria 0-5): AAH 320 g/ha, evaluated three weeks after application; for P: chickweed, herbicidal effect grade: 320 g/ha, three weeks after application
How it was run: (§1)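 Sow seeds spot-wise in sterilized diluvial soil; cover with ~1.5 cm soil. Grow 14 days in greenhouse, 25° C. to 30° C. Spray foliage with emulsion diluted to predetermined amount. Rate effect after 3 weeks.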

Chinese sprangletop = experiment: Test Example 3: herbicidal effect by foliage application, Wagner pot (Table 18, symbol D); format: in vivo, chinese sprangletop (Leptochloa chinensis); details: amount of applied herbicide 320 g/ha
How it was run: (§2)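 Plants were sown in alluvial soil held under 0.1–0.5 cm standing water and grown 14 days in a greenhouse at 25–30 °C. An emulsifiable formulation, water-diluted to the set dose, was then sprayed onto the foliage, and effects were scored three weeks later using previously defined criteria.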

rice flat sedge = experiment: Test Example 3: herbicidal effect by foliage application, Wagner pot (Table 18, symbol E); format: in vivo, rice flat sedge (Cyperus iria); details: amount of applied herbicide 320 g/ha
How it was run: as §2

persian speedwell = experiment: Test Example 5: herbicidal effect by foliage application, plastic box (Table 20, symbol R); format: in vivo, Persian speedwell (Veronica persica); details: foliage application; for R: persian speedwell, herbicidal effect (criteria 0-5): AAH 320 g/ha, evaluated three weeks after application; for R: persian speedwell, herbicidal effect grade: 320 g/ha, three weeks after application
How it was run: as §1

barnyard grass [1] = experiment: Test Example 3: herbicidal effect by foliage application, Wagner pot (Table 18, symbol H); format: in vivo, barnyard grass (Echinochloa crus-galli); details: amount of applied herbicide 320 g/ha
How it was run: as §2

green foxtail = experiment: Test Example 5: herbicidal effect by foliage application, plastic box (Table 20, symbol G); format: in vivo, green foxtail (Setaria viridis); details: foliage application; for G: green foxtail, herbicidal effect (criteria 0-5): AAH 320 g/ha, evaluated three weeks after application; for G: green foxtail, herbicidal effect grade: 320 g/ha, three weeks after application
How it was run: as §1

Italian ryegrass = experiment: Test Example 5: herbicidal effect by foliage application, plastic box (Table 20, symbol K); format: in vivo, Italian ryegrass (Lolium multiflorum); details: foliage application; for K: Italian ryegrass, herbicidal effect (criteria 0-5): AAH 320 g/ha, evaluated three weeks after application; for K: Italian ryegrass, herbicidal effect grade: 320 g/ha, three weeks after application
How it was run: as §1

southern crabgrass = experiment: Test Example 5: herbicidal effect by foliage application, plastic box (Table 20, symbol F); format: in vivo, southern crabgrass (Digitaria ciliaris); details: foliage application; for F: southern crabgrass, herbicidal effect (criteria 0-5): AAH 320 g/ha, evaluated three weeks after application; for F: southern crabgrass, herbicidal effect grade: 320 g/ha, three weeks after application
How it was run: as §1

blackgrass = experiment: Test Example 5: herbicidal effect by foliage application, plastic box (Table 20, symbol J); format: in vivo, blackgrass (Alopecurus myosuroides); details: foliage application; for J: blackgrass, herbicidal effect (criteria 0-5): AAH 320 g/ha, evaluated three weeks after application; for J: blackgrass, herbicidal effect grade: 320 g/ha, three weeks after application
How it was run: as §1

redroot pigweed = experiment: Test Example 5: herbicidal effect by foliage application, plastic box (Table 20, symbol N); format: in vivo, redroot pigweed (Amaranthus retroflexus); details: foliage application; for N: redroot pigweed, herbicidal effect (criteria 0-5): AAH 320 g/ha, evaluated three weeks after application; for N: redroot pigweed, herbicidal effect grade: 320 g/ha, three weeks after application
How it was run: as §1

barnyard grass [2] = experiment: Test Example 5: herbicidal effect by foliage application, plastic box (Table 20, symbol H); format: in vivo, barnyard grass (Echinochloa crus-galli); details: foliage application; for H: barnyard grass, herbicidal effect (criteria 0-5): AAH 320 g/ha, evaluated three weeks after application; for H: barnyard grass, herbicidal effect grade: 320 g/ha, three weeks after application
How it was run: as §1

wild oat = experiment: Test Example 5: herbicidal effect by foliage application, plastic box (Table 20, symbol I); format: in vivo, wild oat (Avena fatua); details: foliage application; for I: wild oat, herbicidal effect (criteria 0-5): AAH 320 g/ha, evaluated three weeks after application; for I: wild oat, herbicidal effect grade: 320 g/ha, three weeks after application
How it was run: as §1

lambsquarters = experiment: Test Example 5: herbicidal effect by foliage application, plastic box (Table 20, symbol O); format: in vivo, lambsquarters (Chenopodium album); details: foliage application; for O: lambsquarters, herbicidal effect (criteria 0-5): AAH 320 g/ha, evaluated three weeks after application; for O: lambsquarters, herbicidal effect grade: 320 g/ha, three weeks after application
How it was run: as §1

velvetleaf = experiment: Test Example 5: herbicidal effect by foliage application, plastic box (Table 20, symbol M); format: in vivo, velvetleaf (Abutilon theophrasti); details: foliage application; for M: velvetleaf, herbicidal effect (criteria 0-5): AAH 320 g/ha, evaluated three weeks after application; for M: velvetleaf, herbicidal effect grade: 320 g/ha, three weeks after application
How it was run: as §1

windgrass = experiment: Test Example 5: herbicidal effect by foliage application, plastic box (Table 20, symbol L); format: in vivo, windgrass (Apera spica-venti); details: foliage application; for L: windgrass, herbicidal effect (criteria 0-5): AAH 320 g/ha, evaluated three weeks after application; for L: windgrass, herbicidal effect grade: 320 g/ha, three weeks after application
How it was run: as §1

## Cc1nn(C)c(=O)c(-c2c(-c3cccc(SCC(F)(F)F)c3)sc3ccc(F)cc23)c1O [2-262]
chickweed
  P: chickweed, herbicidal effect (criteria 0-5): 5 (Herbicidal rate of 90% or more (almost completely withered))
Chinese sprangletop
  herbicidal effect on D: Chinese sprangletop: 0 (Herbicidal rate of 5% or less (almost no effect))
Rice flat sedge
  herbicidal effect on E: rice flat sedge: 2 (Herbicidal rate of 20% or more and less than 40%)
Persian speedwell
  R: persian speedwell, herbicidal effect (criteria 0-5): 5 (Herbicidal rate of 90% or more (almost completely withered))
Barnyard grass [1]
  herbicidal effect on H: barnyard grass: 3 (Herbicidal rate of 40% or more and less than 70%)
Green foxtail
  G: green foxtail, herbicidal effect (criteria 0-5): 0 (Herbicidal rate of 5% or less (almost no effect))
Italian ryegrass
  K: Italian ryegrass, herbicidal effect (criteria 0-5): 3 (Herbicidal rate of 40% or more and less than 70%)
Southern crabgrass
  F: southern crabgrass, herbicidal effect (criteria 0-5): 0 (Herbicidal rate of 5% or less (almost no effect))
blackgrass
  J: blackgrass, herbicidal effect (criteria 0-5): 3 (Herbicidal rate of 40% or more and less than 70%)
Redroot pigweed
  N: redroot pigweed, herbicidal effect (criteria 0-5): 5 (Herbicidal rate of 90% or more (almost completely withered))
Barnyard grass [2]
  H: barnyard grass, herbicidal effect (criteria 0-5): 0 (Herbicidal rate of 5% or less (almost no effect))
Wild oat
  I: wild oat, herbicidal effect (criteria 0-5): 3 (Herbicidal rate of 40% or more and less than 70%)
lambsquarters
  O: lambsquarters, herbicidal effect (criteria 0-5): 3 (Herbicidal rate of 40% or more and less than 70%)
velvetleaf
  M: velvetleaf, herbicidal effect (criteria 0-5): 4 (Herbicidal rate of 70% or more and less than 90%)
windgrass
  L: windgrass, herbicidal effect (criteria 0-5): 4 (Herbicidal rate of 70% or more and less than 90%)

## Cc1nn(C)c(=O)c(-c2c(-c3ccc(OC(F)F)cc3)sc3ccc(F)cc23)c1OC(=O)C(C)(C)c1ccccc1 [2-282]
chickweed
  P: chickweed, herbicidal effect (criteria 0-5): 5 (Herbicidal rate of 90% or more (almost completely withered))
Chinese sprangletop
  herbicidal effect on D: Chinese sprangletop: 0 (Herbicidal rate of 5% or less (almost no effect))
Rice flat sedge
  herbicidal effect on E: rice flat sedge: 0 (Herbicidal rate of 5% or less (almost no effect))
Persian speedwell
  R: persian speedwell, herbicidal effect (criteria 0-5): 5 (Herbicidal rate of 90% or more (almost completely withered))
Barnyard grass [1]
  herbicidal effect on H: barnyard grass: 3 (Herbicidal rate of 40% or more and less than 70%)
Green foxtail
  G: green foxtail, herbicidal effect (criteria 0-5): 4 (Herbicidal rate of 70% or more and less than 90%)
Italian ryegrass
  K: Italian ryegrass, herbicidal effect (criteria 0-5): 0 (Herbicidal rate of 5% or less (almost no effect))
Southern crabgrass
  F: southern crabgrass, herbicidal effect (criteria 0-5): 0 (Herbicidal rate of 5% or less (almost no effect))
blackgrass
  J: blackgrass, herbicidal effect (criteria 0-5): 0 (Herbicidal rate of 5% or less (almost no effect))
Redroot pigweed
  N: redroot pigweed, herbicidal effect (criteria 0-5): 5 (Herbicidal rate of 90% or more (almost completely withered))
Barnyard grass [2]
  H: barnyard grass, herbicidal effect (criteria 0-5): 1 (Herbicidal rate of 5% or more and less than 20%)
Wild oat
  I: wild oat, herbicidal effect (criteria 0-5): 0 (Herbicidal rate of 5% or less (almost no effect))
lambsquarters
  O: lambsquarters, herbicidal effect (criteria 0-5): 5 (Herbicidal rate of 90% or more (almost completely withered))
velvetleaf
  M: velvetleaf, herbicidal effect (criteria 0-5): 4 (Herbicidal rate of 70% or more and less than 90%)
windgrass
  L: windgrass, herbicidal effect (criteria 0-5): 0 (Herbicidal rate of 5% or less (almost no effect))

## Cc1nn(C)c(=O)c(-c2c(-c3ccc(OC(F)F)cc3)sc3ccc(F)cc23)c1OC(=O)SC(C)(C)C [2-296]
chickweed
  P: chickweed, herbicidal effect (criteria 0-5): 5 (Herbicidal rate of 90% or more (almost completely withered))
Chinese sprangletop
  herbicidal effect on D: Chinese sprangletop: 2 (Herbicidal rate of 20% or more and less than 40%)
Rice flat sedge
  herbicidal effect on E: rice flat sedge: 3 (Herbicidal rate of 40% or more and less than 70%)
Persian speedwell
  R: persian speedwell, herbicidal effect (criteria 0-5): 5 (Herbicidal rate of 90% or more (almost completely withered))
Barnyard grass [1]
  herbicidal effect on H: barnyard grass: 5 (Herbicidal rate of 90% or more (almost completely withered))
Green foxtail
  G: green foxtail, herbicidal effect (criteria 0-5): 5 (Herbicidal rate of 90% or more (almost completely withered))
Italian ryegrass
  K: Italian ryegrass, herbicidal effect (criteria 0-5): 1 (Herbicidal rate of 5% or more and less than 20%)
Southern crabgrass
  F: southern crabgrass, herbicidal effect (criteria 0-5): 0 (Herbicidal rate of 5% or less (almost no effect))
blackgrass
  J: blackgrass, herbicidal effect (criteria 0-5): 3 (Herbicidal rate of 40% or more and less than 70%)
Redroot pigweed
  N: redroot pigweed, herbicidal effect (criteria 0-5): 5 (Herbicidal rate of 90% or more (almost completely withered))
Barnyard grass [2]
  H: barnyard grass, herbicidal effect (criteria 0-5): 4 (Herbicidal rate of 70% or more and less than 90%)
Wild oat
  I: wild oat, herbicidal effect (criteria 0-5): 0 (Herbicidal rate of 5% or less (almost no effect))
lambsquarters
  O: lambsquarters, herbicidal effect (criteria 0-5): 5 (Herbicidal rate of 90% or more (almost completely withered))
velvetleaf
  M: velvetleaf, herbicidal effect (criteria 0-5): 5 (Herbicidal rate of 90% or more (almost completely withered))
windgrass
  L: windgrass, herbicidal effect (criteria 0-5): 0 (Herbicidal rate of 5% or less (almost no effect))

## Cc1nn(Cc2ccccc2)c(=O)c(-c2c(-c3ccc(C(F)(F)F)cc3)sc3ccc(F)cc23)c1O [2-436]
chickweed
  P: chickweed, herbicidal effect grade: 0 (Herbicidal rate of 5% or less (almost no effect))
Chinese sprangletop
  herbicidal effect on D: Chinese sprangletop: 0 (Herbicidal rate of 5% or less (almost no effect))
Rice flat sedge
  herbicidal effect on E: rice flat sedge: 2 (Herbicidal rate of 20% or more and less than 40%)
Persian speedwell
  R: persian speedwell, herbicidal effect grade: 0 (Herbicidal rate of 5% or less (almost no effect))
Barnyard grass [1]
  herbicidal effect on H: barnyard grass: 3 (Herbicidal rate of 40% or more and less than 70%)
Green foxtail
  G: green foxtail, herbicidal effect grade: 0 (Herbicidal rate of 5% or less (almost no effect))
Italian ryegrass
  K: Italian ryegrass, herbicidal effect grade: 0 (Herbicidal rate of 5% or less (almost no effect))
Southern crabgrass
  F: southern crabgrass, herbicidal effect grade: 0 (Herbicidal rate of 5% or less (almost no effect))
blackgrass
  J: blackgrass, herbicidal effect grade: 0 (Herbicidal rate of 5% or less (almost no effect))
Redroot pigweed
  N: redroot pigweed, herbicidal effect grade: 3 (Herbicidal rate of 40% or more and less than 70%)
Barnyard grass [2]
  H: barnyard grass, herbicidal effect grade: 0 (Herbicidal rate of 5% or less (almost no effect))
Wild oat
  I: wild oat, herbicidal effect grade: 0 (Herbicidal rate of 5% or less (almost no effect))
lambsquarters
  O: lambsquarters, herbicidal effect grade: 0 (Herbicidal rate of 5% or less (almost no effect))
velvetleaf
  M: velvetleaf, herbicidal effect grade: 0 (Herbicidal rate of 5% or less (almost no effect))
windgrass
  L: windgrass, herbicidal effect grade: 0 (Herbicidal rate of 5% or less (almost no effect))

## COCCOCOc1c(C)nn(C)c(=O)c1-c1c(-c2ccc(Oc3ncc(C(F)(F)F)cc3Cl)cc2)sc2ccc(F)cc12 [2-468]
chickweed
  P: chickweed, herbicidal effect grade: 0 (Herbicidal rate of 5% or less (almost no effect))
Chinese sprangletop
  herbicidal effect on D: Chinese sprangletop: 2 (Herbicidal rate of 20% or more and less than 40%)
Rice flat sedge
  herbicidal effect on E: rice flat sedge: 2 (Herbicidal rate of 20% or more and less than 40%)
Persian speedwell
  R: persian speedwell, herbicidal effect grade: 3 (Herbicidal rate of 40% or more and less than 70%)
Barnyard grass [1]
  herbicidal effect on H: barnyard grass: 3 (Herbicidal rate of 40% or more and less than 70%)
Green foxtail
  G: green foxtail, herbicidal effect grade: 0 (Herbicidal rate of 5% or less (almost no effect))
Italian ryegrass
  K: Italian ryegrass, herbicidal effect grade: 0 (Herbicidal rate of 5% or less (almost no effect))
Southern crabgrass
  F: southern crabgrass, herbicidal effect grade: 0 (Herbicidal rate of 5% or less (almost no effect))
blackgrass
  J: blackgrass, herbicidal effect grade: 0 (Herbicidal rate of 5% or less (almost no effect))
Redroot pigweed
  N: redroot pigweed, herbicidal effect grade: 1 (Herbicidal rate of 5% or more and less than 20%)
Barnyard grass [2]
  H: barnyard grass, herbicidal effect grade: 5 (Herbicidal rate of 90% or more (almost completely withered))
Wild oat
  I: wild oat, herbicidal effect grade: 0 (Herbicidal rate of 5% or less (almost no effect))
lambsquarters
  O: lambsquarters, herbicidal effect grade: 2 (Herbicidal rate of 20% or more and less than 40%)
velvetleaf
  M: velvetleaf, herbicidal effect grade: 0 (Herbicidal rate of 5% or less (almost no effect))
windgrass
  L: windgrass, herbicidal effect grade: 0 (Herbicidal rate of 5% or less (almost no effect))
